Source: ChEMBL document CHEMBL1147657, “Indanesulfonamides as carbonic anhydrase inhibitors. Toward structure-based design of selective inhibitors of the tumor-associated isozyme CA IX” (J Med Chem, 2006)

Target: Carbonic anhydrase 9 (Homo sapiens, UniProt Q16790)

For `NS(=O)(=O)c1ccc2c(c1)CC(NC(=O)c1c(F)c(F)c(F)c(F)c1F)C2` (configuration not stated), which Ki is on record?
Its Ki is 33 nM.

`CCCCCCCCCC(=O)NC1Cc2ccc(S(N)(=O)=O)cc2C1` (configuration not stated) was tested. Which Ki did it give?
Its Ki is 3.7 nM.
